Source: US20220371989A1, “N-ACYL-TYROSINE DERIVATIVES AND USES THEREOF” (Sederma, priority 2019, published 2022)
Entries after “also recorded” stand apart in the source; their conditions may differ.

Experiments:
Assay type in all cases: cell-based
[1] = test system: Enterococcus faecium EF379 (VRE); experiment: microbroth dilution antimicrobial assay, E. faecium EF379 (VRE); details: for IC50: Enterococcus faecium EF379 (VRE), 22 h, 37° C., triplicate, read-out: IC50 of N-Acyltyrosines
Text: (§1) α-Methylation of N-pamitoyltyrosines confers antimicrobial activity. Compound (1) was initially screened for antimicrobial activity against the following panel of pathogenic bacteria and fungi in Table 1 in microbroth dilution assays: methicillin-resistant Staphylococcus aureus (MRSA), Staphylococcus warneri, vancomycin-resistant Enterococcus faecium (VRE), Pseudomonas aeruginosa, Proteus vulgaris and Candida albicans. […] The inventors were aware of no reports on anti-Staphylococcus activity of N-acyltyrosines or on anti-Enterococcal activity of any N-acylated amino acid; thus, it was hypothesized that the α-methyl substituent of compound (1) may be a key component of the antimicrobial pharmacophore of compound 1, may confer Staphylococcus inhibitory activity to N-acyltyrosines, and/or perhaps may play a role in their Enterococcus activity.
(§2) To test the proposed structure-activity relationship (SAR), a structural analogue compound (2) of compound (1) was synthesized that lacks an a-methyl substituent, and compound (2) was tested for antimicrobial activity in parallel with compound (1). Analogues (3) and (4) were also synthesized and assayed to further support a potential SAR involving the O-methyl substituent (FIG. 16-21). To thoroughly characterize the anti-Enterococcal activity of compounds (1)-(4), five veterinary clinical isolates from veterinary cases (in addition to VRE EF379) were obtained for this study. All five clinical isolates were classified as vancomycin-susceptible.
(§3) Evaluation of antimicrobial activity and cytotoxicity. The following five Enterococcus spp. were isolated from clinical specimens at the Atlantic Veterinary College (AVC) by the AVC Diagnostic Services Bacteriology Laboratory. Isolates were identified using the Bruker microflex LT MALDI-TOF with MBT Compass version 4.179. The direct colony transfer method was used with the Bruker Matrix HCCA (α-cyano-4-hydroxycinnamic acid) overlay, following manufacturer guidelines. Score values between 2.00 and 3.00 were considered high confidence identifications. The following isolates (with source species) were identified: E. faecium 15337 (feline), E. faecalis 16371 (canine), E. gallinarum 20993 (erinaceine), E. casseliflavus 15984 (equine) and E. hirae 17446 (avine). Antimicrobial activity of 1-4 was evaluated against all five clinical Enterococcus isolates in addition to methicillin-resistant Staphylococcus aureus ATCC 33591 (MRSA), S. warneri ATCC 17917, vancomycin-resistant Enterococcus faecium EF379 (VRE), Pseudomonas aeruginosa ATCC 14210, Proteus vulgaris ATCC 12454 and Candida albicans ATCC 14035. All testing was carried out in triplicate according to the Clinical Laboratory Standards Institute testing standards in a 96-well plate microbroth dilution assay as previously described.^14 Optical density was measured using a Thermo Scientific Varioskan Flash plate reader at 600 nm, recording at time zero and then again after incubation for 22 h (37° C.) to determine percent growth inhibition. Cytotoxicity was evaluated against Vero kidney cell line from African green monkey (Cercopithecus aethiops), MCF7 human breast adenocarcinoma cells (ATCC HTB-22), human breast adenocarcinoma cells (ATCC HTB-26) and HCT-116 human colorectal carcinoma cells (ATCC CCL-247). All assays were carried out as described previously.^14 Fluorescence was measured using a Thermo Scientific Varioskan Flash plate reader at 560/12 excitation, 590 nm emission both at time zero and 4 h after alamarBlue (Invitrogen) addition. For both antimicrobial and cytotoxicity data, growth inhibition was expressed as a percentage and plotted against the logarithm of concentration.

[2] = test system: Enterococcus casseliflavus 15984; experiment: microbroth dilution antimicrobial assay, E. casseliflavus 15984; details: for IC50: Enterococcus casseliflavus 15984, microbroth dilution, 22 h, 37° C., triplicate, read-out: IC50 of N-Acyltyrosines
Protocol: as §2, §3

[3] = test system: Staphylococcus aureus ATCC 33591 (MRSA); experiment: microbroth dilution antimicrobial assay, S. aureus ATCC 33591 (MRSA); details: for growth inhibition (in words): S. aureus (MRSA); for growth inhibition (in words) / IC50: microbroth dilution; for IC50: Staphylococcus aureus ATCC 33591 (MRSA), 22 h, 37° C., triplicate, read-out: IC50 of N-Acyltyrosines; for growth at the highest concentration tested (in words): 128 μg/mL
Text: as §1, §3

[4] = test system: Enterococcus faecium 15337; experiment: microbroth dilution antimicrobial assay, E. faecium 15337; details: for IC50: Enterococcus faecium 15337, microbroth dilution, 22 h, 37° C., triplicate, read-out: IC50 of N-Acyltyrosines
Protocol: as §2, §3

Enterococcus hirae 17446 = experiment: microbroth dilution antimicrobial assay, E. hirae 17446; details: for IC50: Enterococcus hirae 17446, microbroth dilution, 22 h, 37° C., triplicate, read-out: IC50 of N-Acyltyrosines
Protocol: as §2, §3

[5] = test system: Enterococcus faecalis 16371; experiment: microbroth dilution antimicrobial assay, E. faecalis 16371; details: for IC50: Enterococcus faecalis 16371, microbroth dilution, 22 h, 37° C., triplicate, read-out: IC50 of N-Acyltyrosines
Protocol: as §2, §3

[6] = test system: Enterococcus gallinarum 20993; experiment: microbroth dilution antimicrobial assay, E. gallinarum 20993; details: for IC50: Enterococcus gallinarum 20993, microbroth dilution, 22 h, 37° C., triplicate, read-out: IC50 of N-Acyltyrosines
Protocol: as §2, §3

[7] = test system: Staphylococcus warneri ATCC 17917; experiment: microbroth dilution antimicrobial assay, S. warneri ATCC 17917; details: for IC50: ATCC17917, Staphylococcus warneri ATCC 17917, 22 h, 37° C., triplicate, read-out: IC50 of N-Acyltyrosines; for IC50 / growth inhibition (in words): microbroth dilution; for growth at the highest concentration tested (in words): 128 μg/mL
Text: as §1, §3

[8] = test system: Pseudomonas aeruginosa ATCC 14210; experiment: microbroth dilution antimicrobial assay, P. aeruginosa ATCC 14210
Text: (§4) α-Methylation of N-pamitoyltyrosines confers antimicrobial activity. Compound (1) was initially screened for antimicrobial activity against the following panel of pathogenic bacteria and fungi in Table 1 in microbroth dilution assays: methicillin-resistant Staphylococcus aureus (MRSA), Staphylococcus warneri, vancomycin-resistant Enterococcus faecium (VRE), Pseudomonas aeruginosa, Proteus vulgaris and Candida albicans. […]
(§5) Evaluation of antimicrobial activity and cytotoxicity. […] Antimicrobial activity of 1-4 was evaluated against all five clinical Enterococcus isolates in addition to methicillin-resistant Staphylococcus aureus ATCC 33591 (MRSA), S. warneri ATCC 17917, vancomycin-resistant Enterococcus faecium EF379 (VRE), Pseudomonas aeruginosa ATCC 14210, Proteus vulgaris ATCC 12454 and Candida albicans ATCC 14035. All testing was carried out in triplicate according to the Clinical Laboratory Standards Institute testing standards in a 96-well plate microbroth dilution assay as previously described.^14 Optical density was measured using a Thermo Scientific Varioskan Flash plate reader at 600 nm, recording at time zero and then again after incubation for 22 h (37° C.) to determine percent growth inhibition. […] For both antimicrobial and cytotoxicity data, growth inhibition was expressed as a percentage and plotted against the logarithm of concentration.

[9] = test system: Candida albicans ATCC 14035; experiment: microbroth dilution antimicrobial assay, Candida albicans ATCC 14035
Text: as §4, §5

[10] = test system: Proteus vulgaris ATCC 12454; experiment: microbroth dilution antimicrobial assay, Proteus vulgaris ATCC 12454
Text: as §4, §5

Row | SMILES | IC50 ([1]; microbroth dilution) [µM] | IC50 [2] [µM] | growth inhibition (in words) [3] | IC50 [3] [µM] | IC50 [4] [µM] | IC50 (Enterococcus hirae 17446) [µM] | IC50 [5] [µM] | IC50 [6] [µM] | IC50 [7] [µM] | growth inhibition (in words) ([7]; S. warneri) | growth at the highest concentration tested (in words) ([3]; S. aureus) | growth at the highest concentration tested (in words) ([7]; S. warneri) | other results
1 | CCCCCCCCCCCCCCCC(=O)N[C@@](C)(Cc1ccc(O)cc1)C(=O)O [Compound 3, N-Palmitoyl-α-methyl-L-tyrosine] | 5.3 | 9 | inhibited | 9.2 to 18.4 | 9.9 | 4.6 | 9.2 to 18.4 | 4.6 | 9.2 to 18.4 | inhibited |  |  | 
2 | CO[C@H]1/C=C/O[C@@]2(C)Oc3c(C)c(O)c4c(O)c(c(/C=N/N5CCN(C)CC5)c(O)c4c3C2=O)NC(=O)/C(C)=C\C=C\[C@H](C)[C@H](O)[C@@H](C)[C@@H](O)[C@@H](C)[C@H](OC(C)=O)[C@@H]1C [RIF, reference compound] |  |  |  |  |  |  |  |  |  |  |  |  | IC50 of positive control antibiotic ([1]; E. faecium EF379, positive control): 4 µg/mL; IC50 of positive control antibiotic ([2]; E. casseliflavus 15984, positive control): 0.9 µg/mL; IC50 of positive control antibiotic ([4]; E. faecium 15337, positive control): > 16 µg/mL; IC50 of positive control antibiotic (Enterococcus hirae 17446; E. hirae 17446, positive control): < 0.5 µg/mL; IC50 of positive control antibiotic ([5]; E. faecalis 16371, positive control): > 8 µg/mL; IC50 of positive control antibiotic ([6]; E. gallinarum 20993, positive control): 3 µg/mL
3 | CN[C@H](CC(C)C)C(=O)N[C@H]1C(=O)N[C@@H](CC(N)=O)C(=O)N[C@H]2C(=O)N[C@H]3C(=O)N[C@H](C(=O)N[C@H](C(=O)O)c4cc(O)cc(O)c4-c4cc3ccc4O)[C@H](O)c3ccc(c(Cl)c3)Oc3cc2cc(c3O[C@@H]2O[C@H](CO)[C@@H](O)[C@H](O)[C@H]2O[C@H]2C[C@](C)(N)[C@H](O)[C@H](C)O2)Oc2ccc(cc2Cl)[C@H]1O [VAN, reference compound] |  |  |  |  |  |  |  |  |  |  |  |  | IC50 of positive control antibiotic ([3]; S. aureus ATCC 33591, positive control): 2 µg/mL; IC50 of positive control antibiotic ([7]; S. warneri, positive control): < 0.125 µg/mL
4 | CCCCCCCCCCCCCCCC(=O)N[C@@H](Cc1ccc(OC)cc1)C(=O)O [Compound 2, N-Palmitoyl-O-methyl-L-tyrosine] | 13.3 | 10.7 |  | > 295 | 10.5 | 3.6 | > 295 | 71.5 | > 295 |  | unaffected | unaffected | Enterococcus inhibitory activity (in words) ([5]; E. faecalis 16371, FIG. 24 legend): inactive
5 | CCCCCCCCCCCCCCCC(=O)N[C@@](C)(Cc1ccc(OC)cc1)C(=O)O [Compound 1, N-Palmitoyl-α,O-dimethyl-L-tyrosine] | 1.6 | 3.1 | Growth inhibition was observed; also recorded: inhibited | > 286 | 7.2 | 4.1 | 7.4 | 4 | > 286 | Growth inhibition was observed |  |  | growth inhibition (in words) ([1]; VRE, initial screen, microbroth dilution): Growth inhibition was observed; IC50 ([8]; ATCC14210, Pseudomonas aeruginosa ATCC 14210, microbroth dilution, read-out: IC50 of N-Acyltyrosines): > 286 µM; antimicrobial activity (in words) ([8]; Gram-negative pathogen Pseudomonas aeruginosa, initial screen): no activity was observed; Incomplete growth inhibition ([3]; S. aureus, 8-128 μg/mL (footnote b)): < 75%; concentration at which maximum inhibition was achieved ([3]; S. aureus, inhibition incomplete, plateaued at higher concentrations (FIG. 25)): 8 µg/mL; IC50 ([9]; ATCC14035, Candida albicans ATCC 14035, microbroth dilution, read-out: IC50 of N-Acyltyrosines): > 286 µM; antimicrobial activity (in words) ([9]; fungal pathogen Candida albicans, initial screen): no activity was observed; IC50 ([10]; ATCC12454, Proteus vulgaris ATCC 12454, microbroth dilution, read-out: IC50 of N-Acyltyrosines): > 286 µM; antimicrobial activity (in words) ([10]; Gram-negative pathogen Proteus vulgaris, initial screen): no activity was observed; Incomplete growth inhibition ([7]; S. warneri, from 2-64 μg/mL (footnote b)): < 50%
6 | CCCCCCCCCCCCCCCC(=O)N[C@@H](Cc1ccc(O)cc1)C(=O)O [Compound 4, N-Palmitoyl-L-tyrosine] | 10.7 | 32.1 |  | > 305 | > 305 | 5.6 | 77.1 | 146 | > 305 |  | unaffected | unaffected | Enterococcus inhibitory activity (in words) ([4]; E. faecium 15337, FIG. 24 legend): inactive; Incomplete growth inhibition ([4]; E. faecium 15337, at all tested concentrations (footnote b)): < 50
